Source: article PMC4503722, “Novel Phenotypic Outcomes Identified for a Public Collection of Approved Drugs from a Publicly Accessible Panel of Assays” (PLoS ONE, 2015)
Where two headings read alike, the source gives them in different places.

Experiments:
[1] = system: INS-1E cells; test: cells; assay type: cell-based, rat; details: for EC50: Rattus norvegicus, INS-1E
[2] = system: INS-1E cells; assay type: cell-based, rat;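 on 5mMGluc INS1E SecretionMod IC50/EC50: secreted insulin quantified by homogeneous immunoassay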;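 on IC50/EC50, 5mMGluc INS1E SecretionMod (assay number 8): secreted insulin quantified by homogeneous immunoassay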
[3] = system: tonic K+ channel activity in INS-1E cells; test: cells; assay type: cell-based, rat
[4] = system: endothelial tube formation in co-cultures of ECFCs and ADSCs treated with VEGF; test: cells; assay type: cell-based, human
[5] = system: nuclear β-catenin in C2C12 cells; test: cells; assay type: cell-based; details: for WntCondMedia_bCatenin C2C12 IC50/EC50: assay number 5, concentration response
[6] = system: alkaline phosphatase (ALP) activity in C2C12 cells; assay type: cell-based; details: assay number 6; concentration response
[7] = system: HeLa cells; test: cells; assay type: cell-based; details: for Hela CellCycMod PI 2N IC50/EC50: assay number 14; for Hela CellCycMod PI 4N IC50/EC50: assay number 16; for Hela CellCycMod PI MI IC50/EC50: assay number 17; for Hela CellCycMod PI Cell Number IC50/EC50: assay number 18
[8] = molecular target: T1, hp70S6K1 (RPS6KB1) (Homo sapiens, UniProt P23443); test: Cerep LANCE kinase assay hp70S6K1 (S1 assay 31); assay type: biochemical; details: assay number 31
T1 construct: purchased Cerep (LANCE kinase assay platform, contract assay)

[9] = molecular target: T2, hKDR (Homo sapiens, UniProt P35968); test: Cerep LANCE kinase assay hKDR (S1 assay 32); assay type: biochemical; details: assay number 32
T2 construct: purchased Cerep (LANCE kinase assay platform, contract assay)

[10] = molecular target: T3, hJAK2 (Homo sapiens, UniProt O60674); test: Cerep LANCE kinase assay hJAK2 (S1 assay 33); assay type: biochemical; details: assay number 33
T3 construct: purchased Cerep (LANCE kinase assay platform, contract assay)

[11] = molecular target: T4, hGSK3b (Homo sapiens, UniProt P49841); test: Cerep LANCE kinase assay hGSK3b (S1 assay 34); assay type: biochemical; details: assay number 34
T4 construct: purchased Cerep (LANCE kinase assay platform, contract assay)

[12] = molecular target: T5, hFLT3 (Homo sapiens, UniProt P36888); test: Cerep LANCE kinase assay hFLT3 (S1 assay 35); assay type: biochemical; details: assay number 35
T5 construct: purchased Cerep (LANCE kinase assay platform, contract assay)

[13] = system: ECFC/ADSC co-culture cell nuclei number
[14] = system: DLD-1; test: cells; assay type: cell-based
[15] = system: SW480; test: cells; assay type: cell-based; details: for IC50: Homo sapiens
[16] = system: HCT116; test: cells; assay type: cell-based
[17] = system: HCT116 cells treated with a GSK3β inhibitor; test: cells; assay type: cell-based
[18] = system: HT-29; test: cells; assay type: cell-based
[19] = system: RKO; test: cells; assay type: cell-based
[20] = system: SNU-C1; test: cells; assay type: cell-based
[21] = system: NCI-H716 cells; test: cells; assay type: cell-based, Human; details: Homo sapiens, NCI-H716, read-out: GLP1 sec. EC50

T3 sequence (O60674 whole entry): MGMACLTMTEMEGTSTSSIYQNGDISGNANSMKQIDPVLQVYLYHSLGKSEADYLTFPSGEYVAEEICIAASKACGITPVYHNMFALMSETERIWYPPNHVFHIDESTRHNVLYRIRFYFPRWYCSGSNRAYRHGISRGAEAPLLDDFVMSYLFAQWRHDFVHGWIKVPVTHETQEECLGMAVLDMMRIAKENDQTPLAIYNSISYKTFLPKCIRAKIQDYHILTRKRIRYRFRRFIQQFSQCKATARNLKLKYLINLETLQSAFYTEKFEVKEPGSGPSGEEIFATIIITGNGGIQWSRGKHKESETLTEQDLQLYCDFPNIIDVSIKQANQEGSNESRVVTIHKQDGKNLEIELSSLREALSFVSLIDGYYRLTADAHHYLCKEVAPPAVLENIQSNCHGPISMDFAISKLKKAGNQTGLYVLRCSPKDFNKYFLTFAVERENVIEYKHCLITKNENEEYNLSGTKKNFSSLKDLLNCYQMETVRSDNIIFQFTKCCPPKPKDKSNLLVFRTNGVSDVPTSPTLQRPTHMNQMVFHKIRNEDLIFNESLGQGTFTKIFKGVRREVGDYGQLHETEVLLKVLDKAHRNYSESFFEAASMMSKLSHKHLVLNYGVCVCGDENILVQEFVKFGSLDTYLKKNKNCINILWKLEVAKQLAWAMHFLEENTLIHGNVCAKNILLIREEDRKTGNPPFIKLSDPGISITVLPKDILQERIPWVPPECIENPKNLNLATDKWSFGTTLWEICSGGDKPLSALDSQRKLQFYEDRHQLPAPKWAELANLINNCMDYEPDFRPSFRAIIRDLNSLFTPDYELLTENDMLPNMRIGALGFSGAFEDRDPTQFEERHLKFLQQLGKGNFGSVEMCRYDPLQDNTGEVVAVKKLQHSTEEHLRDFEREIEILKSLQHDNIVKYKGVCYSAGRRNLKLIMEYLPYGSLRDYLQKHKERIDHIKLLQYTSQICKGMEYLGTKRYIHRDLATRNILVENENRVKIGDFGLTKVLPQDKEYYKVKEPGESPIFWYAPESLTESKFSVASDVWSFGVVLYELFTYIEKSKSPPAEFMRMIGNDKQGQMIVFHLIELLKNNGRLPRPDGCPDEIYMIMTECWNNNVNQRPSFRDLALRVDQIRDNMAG
T2 sequence (P35968 20-1356): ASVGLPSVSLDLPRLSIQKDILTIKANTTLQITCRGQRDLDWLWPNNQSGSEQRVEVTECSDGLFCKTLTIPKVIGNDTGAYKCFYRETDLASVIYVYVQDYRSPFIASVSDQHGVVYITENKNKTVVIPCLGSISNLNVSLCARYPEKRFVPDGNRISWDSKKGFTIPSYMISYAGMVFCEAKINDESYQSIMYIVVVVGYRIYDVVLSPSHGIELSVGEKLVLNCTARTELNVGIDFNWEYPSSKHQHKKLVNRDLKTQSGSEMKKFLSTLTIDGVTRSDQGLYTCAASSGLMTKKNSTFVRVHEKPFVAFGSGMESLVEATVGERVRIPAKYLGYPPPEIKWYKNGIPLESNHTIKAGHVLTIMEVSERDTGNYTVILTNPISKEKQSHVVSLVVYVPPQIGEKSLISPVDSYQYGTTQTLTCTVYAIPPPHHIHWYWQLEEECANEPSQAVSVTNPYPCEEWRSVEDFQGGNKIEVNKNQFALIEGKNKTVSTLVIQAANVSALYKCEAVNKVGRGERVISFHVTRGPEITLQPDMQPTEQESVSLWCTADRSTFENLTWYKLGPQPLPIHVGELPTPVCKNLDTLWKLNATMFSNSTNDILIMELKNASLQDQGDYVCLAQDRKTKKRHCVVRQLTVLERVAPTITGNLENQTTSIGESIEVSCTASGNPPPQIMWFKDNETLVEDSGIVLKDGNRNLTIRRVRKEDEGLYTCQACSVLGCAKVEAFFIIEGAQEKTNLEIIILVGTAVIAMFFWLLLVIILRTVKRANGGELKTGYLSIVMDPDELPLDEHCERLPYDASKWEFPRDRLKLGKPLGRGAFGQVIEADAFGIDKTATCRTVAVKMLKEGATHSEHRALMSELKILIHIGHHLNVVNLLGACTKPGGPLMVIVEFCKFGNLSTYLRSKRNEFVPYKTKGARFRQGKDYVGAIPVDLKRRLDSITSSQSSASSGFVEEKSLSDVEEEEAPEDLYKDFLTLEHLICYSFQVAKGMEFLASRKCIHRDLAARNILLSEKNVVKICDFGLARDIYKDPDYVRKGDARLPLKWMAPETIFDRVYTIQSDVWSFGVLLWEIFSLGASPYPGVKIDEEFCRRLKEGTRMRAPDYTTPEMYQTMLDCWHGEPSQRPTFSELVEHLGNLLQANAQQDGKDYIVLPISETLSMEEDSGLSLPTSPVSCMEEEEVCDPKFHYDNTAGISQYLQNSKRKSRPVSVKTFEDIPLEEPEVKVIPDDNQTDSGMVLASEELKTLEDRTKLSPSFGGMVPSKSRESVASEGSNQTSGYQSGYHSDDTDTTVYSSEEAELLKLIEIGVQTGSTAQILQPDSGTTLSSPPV
T4 sequence (P49841 whole entry): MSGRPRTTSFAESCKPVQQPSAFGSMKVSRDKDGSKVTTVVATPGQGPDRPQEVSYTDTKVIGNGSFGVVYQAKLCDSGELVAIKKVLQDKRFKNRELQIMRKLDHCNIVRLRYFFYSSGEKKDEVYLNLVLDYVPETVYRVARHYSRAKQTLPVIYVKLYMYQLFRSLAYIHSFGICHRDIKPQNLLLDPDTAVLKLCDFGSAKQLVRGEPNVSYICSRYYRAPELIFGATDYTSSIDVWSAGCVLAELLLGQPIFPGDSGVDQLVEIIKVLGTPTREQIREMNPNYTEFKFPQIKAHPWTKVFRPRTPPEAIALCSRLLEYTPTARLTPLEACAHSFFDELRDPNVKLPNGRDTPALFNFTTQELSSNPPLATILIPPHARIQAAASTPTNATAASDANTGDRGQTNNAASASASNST
T5 sequence (P36888 27-993): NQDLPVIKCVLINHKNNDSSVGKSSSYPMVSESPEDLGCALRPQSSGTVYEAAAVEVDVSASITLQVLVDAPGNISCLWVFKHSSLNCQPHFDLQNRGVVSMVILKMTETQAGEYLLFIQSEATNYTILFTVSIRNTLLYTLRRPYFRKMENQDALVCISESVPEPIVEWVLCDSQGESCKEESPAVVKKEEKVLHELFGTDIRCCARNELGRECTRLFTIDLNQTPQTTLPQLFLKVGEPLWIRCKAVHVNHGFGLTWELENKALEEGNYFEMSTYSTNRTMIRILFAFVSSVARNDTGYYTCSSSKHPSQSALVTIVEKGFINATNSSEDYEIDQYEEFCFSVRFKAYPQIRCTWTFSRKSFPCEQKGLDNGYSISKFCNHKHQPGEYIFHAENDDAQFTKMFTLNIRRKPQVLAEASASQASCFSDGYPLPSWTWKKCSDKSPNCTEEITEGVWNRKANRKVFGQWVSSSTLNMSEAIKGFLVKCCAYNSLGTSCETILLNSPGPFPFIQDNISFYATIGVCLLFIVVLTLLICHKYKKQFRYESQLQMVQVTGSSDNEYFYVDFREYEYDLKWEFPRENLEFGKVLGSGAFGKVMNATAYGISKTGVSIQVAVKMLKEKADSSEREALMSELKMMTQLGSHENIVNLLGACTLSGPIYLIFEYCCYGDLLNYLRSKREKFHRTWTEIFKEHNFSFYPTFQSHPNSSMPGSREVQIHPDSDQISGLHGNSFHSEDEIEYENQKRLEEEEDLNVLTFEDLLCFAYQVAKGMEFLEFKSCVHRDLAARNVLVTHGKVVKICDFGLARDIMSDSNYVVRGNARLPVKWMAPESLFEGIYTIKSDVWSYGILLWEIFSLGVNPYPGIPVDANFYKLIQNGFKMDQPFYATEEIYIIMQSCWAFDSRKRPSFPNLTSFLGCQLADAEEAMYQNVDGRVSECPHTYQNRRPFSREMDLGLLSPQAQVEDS
T1 sequence (P23443 whole entry): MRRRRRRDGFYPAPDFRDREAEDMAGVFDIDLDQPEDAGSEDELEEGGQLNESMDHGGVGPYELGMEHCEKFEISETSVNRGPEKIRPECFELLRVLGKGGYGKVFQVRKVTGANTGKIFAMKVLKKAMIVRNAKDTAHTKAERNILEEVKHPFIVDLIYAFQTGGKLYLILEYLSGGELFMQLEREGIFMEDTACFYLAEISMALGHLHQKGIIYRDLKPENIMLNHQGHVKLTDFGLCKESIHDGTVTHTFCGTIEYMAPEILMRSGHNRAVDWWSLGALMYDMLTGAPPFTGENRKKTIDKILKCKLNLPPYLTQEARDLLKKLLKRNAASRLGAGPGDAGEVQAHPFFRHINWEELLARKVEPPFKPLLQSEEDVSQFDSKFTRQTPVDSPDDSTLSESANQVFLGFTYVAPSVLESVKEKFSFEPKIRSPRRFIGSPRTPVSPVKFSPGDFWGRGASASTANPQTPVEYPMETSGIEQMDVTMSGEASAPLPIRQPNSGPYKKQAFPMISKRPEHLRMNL

## O=c1[nH]c2ccccc2n1CCCN1CCC(n2c(=O)[nH]c3cc(Cl)ccc32)CC1 [NCGC00014670-17]
[1]; 5 mM glucose
  IC50/EC50, 5mMGluc_INS1E SecretionMod (assay number 8): 12.4283 µM
[2]; 0.1 mM glucose
  IC50/EC50, 0.1mMGluc_INS1E SecretionMod Act (assay number 9): > 33.33 µM
[3]; 0.1 mM glucose
  IC50/EC50, 0.1mMGluc_INS1E FluxOR (assay number 10): 36.5303 µM

## CSc1ccc2c(c1)C(N1CCN(C)CC1)Cc1ccccc1S2 (centres unmarked) [NCGC00024665-10]
[4]
  VEGF_ADSC\ECFC Angio CD31 TubeArea IC50/EC50: > 10 µM
[5]
  WntCondMedia_bCatenin C2C12 IC50/EC50: > 20 µM
[6]
  WntCondMedia_Alk Phos C2C12 IC50/EC50: > 20 µM
[1]; assay number 8, 5 mM glucose
  5mMGluc_INS1E SecretionMod IC50/EC50: 2.944 µM
[2]; assay number 9, 0.1 mM glucose
  0.1mMGluc_INS1E SecretionMod Act IC50/EC50: > 33.33 µM
[7]
  Hela CellCycMod PI 2N IC50/EC50: > 10 µM
  Hela CellCycMod PI 4N IC50/EC50: > 10 µM
  Hela CellCycMod PI MI IC50/EC50: > 10 µM
  Hela CellCycMod PI Cell Number IC50/EC50: > 10 µM
[8]
  hp70S6K1 LANCE IC50/EC50: > 20 µM
[9]
  hKDR LANCE IC50/EC50: > 20 µM
[10]
  hJAK2 LANCE IC50/EC50: > 20 µM
[11]
  hGSK3b LANCE IC50/EC50: > 20 µM
[12]
  hFLT3 LANCE IC50/EC50: > 20 µM
[13]
  VEGF_ADSC\ECFC Angio Hoechst NucArea IC50/EC50: > 10 µM

## Cc1c(C)n(Cc2ccccc2)c2ccc(C(=O)OCCN(C)C)cc12 [NCGC00160412-04]
[1]
  5mMGluc_INS1E SecretionMod IC50/EC50: 3.845 µM
[2]
  0.1mMGluc_INS1E SecretionMod Act IC50/EC50: 14.9139 µM
[14]
  Basal_Viability ATP DLD-1 IC50/EC50: 11.2721 µM
[15]
  Basal_Viability ATP SW480 IC50/EC50: 8.7786 µM
[16]
  Basal_Viability ATP HCT116 IC50/EC50: 11.7611 µM
[17]
  GSK3b inh pretreated_Viability ATP HCT116 IC50/EC50: 5.474 µM
[18]
  Basal_Viability ATP HT-29 IC50/EC50: > 6.6667 µM
[19]
  Basal_Viability ATP RKO IC50/EC50: 12.7694 µM
[20]
  Basal_Viability ATP SNU-C1 IC50/EC50: 11.9645 µM

## Nc1ccc2cc3ccc(N)cc3nc2c1 [NCGC00166245-04]
[5]
  WntCondMedia_bCatenin C2C12 IC50/EC50: 5.9868 µM
[6]
  WntCondMedia_Alk Phos C2C12 IC50/EC50: > 20 µM
[1]; assay number 8, 5 mM glucose
  5mMGluc_INS1E SecretionMod IC50/EC50: 20.6221 µM
[2]; assay number 9, 0.1 mM glucose
  0.1mMGluc_INS1E SecretionMod Act IC50/EC50: > 33.33 µM
[7]
  Hela CellCycMod PI 2N IC50/EC50: > 10 µM
  Hela CellCycMod PI 4N IC50/EC50: > 10 µM
  Hela CellCycMod PI MI IC50/EC50: 2.4689 µM
  Hela CellCycMod PI Cell Number IC50/EC50: 1.3426 µM
[7]; assay number 15, S phase
  Hela CellCycMod PI S Phase IC50/EC50: 3.4397 µM
[8]
  hp70S6K1 LANCE IC50/EC50: > 20 µM
[9]
  hKDR LANCE IC50/EC50: > 20 µM
[10]
  hJAK2 LANCE IC50/EC50: > 20 µM
[11]
  hGSK3b LANCE IC50/EC50: > 20 µM
[12]
  hFLT3 LANCE IC50/EC50: > 20 µM

## CN(C)CCC=C1c2ccccc2CCc2ccccc21 [amitriptyline, reference compound]
[4]; Homo sapiens, read-out: Anti-Angio IC50
  IC50: > 10 µM
[5]; Mus musculus, C2C12, read-out: Wnt pot. EC50
  EC50: > 10 µM
[1]; read-out: Ins. sec. EC50
  EC50: 3 µM
[1]; read-out: Insulin Secretion
  EC50: 3 µM
[3]; Rattus norvegicus, INS-1E, read-out: K+ channel assay IC50
  IC50: 6.2 µM
[21]
  EC50: > 10 µM
[7]; Homo sapiens, HeLa, read-out: CellCycle G2/M
  EC50: > 10 µM
[14]; Homo sapiens, DLD-1, 72 h, read-out: DLD-1 viab. IC50
  IC50: > 20 µM
[15]; SW480, 72 h, read-out: SW480 viab. IC50
  IC50: 10.1 µM
[15]; SW480, read-out: Basal_Viability ATP SW480
  IC50: 10.1 µM
[16]; Homo sapiens, HCT-116, 72 h, read-out: HCT-116 viab. IC50
  IC50: > 20 µM
[17]; Homo sapiens, HCT-116, 72 h, read-out: HCT-116 (GSK3β) viab. IC50
  IC50: > 20 µM
